ChEMBL document CHEMBL5505991, “Novel sulfonamide-indolinone hybrids targeting mitochondrial respiration of breast cancer cells” (Eur J Med Chem, 2024)
pIC50, pKi: −log10 of the molar value.

Each compound was assayed on MCF7 (assay: Antiproliferative activity against human MCF7 cells assessed as cell growth at 10 uM incubated for 72 hrs by SRB assay relative to control). Conditions: read-out: Activity.
Format: functional
For `CC(=O)Nc1ccc(S(=O)(=O)Nc2ccc(-c3ccc4c(c3)NC(=O)/C4=C\c3ccc[nH]3)cc2)cc1`, the growth at 10 µM was 14.3%.
With `O=C1Nc2cc(-c3ccc(NS(=O)(=O)c4ccc(Br)cc4)cc3)ccc2/C1=C/c1ccc[nH]1` the growth at 10 µM was -77.4%.
`O=C1Nc2cc(-c3ccc(NS(=O)(=O)c4ccc5ccccc5c4)cc3)ccc2/C1=C/c1ccc[nH]1` showed a growth at 10 µM of -51.9%.
`COc1ccc(S(=O)(=O)Nc2ccc(-c3ccc4c(c3)NC(=O)/C4=C\c3ccc[nH]3)cc2)cc1OC` gave a growth at 10 µM of -39%.
`O=C1Nc2cc(-c3ccc(NS(=O)(=O)c4ccc(C(F)(F)F)cc4)cc3)ccc2/C1=C/c1ccc[nH]1` gave a growth at 10 µM of 0.78%.

The compounds below were run on MCF7 (assay: Growth inhibition of human MCF7 cells incubated for 72 hrs by SRB assay). Conditions: not given.
Format: functional
In the case of `O=C1Nc2cc(-c3ccc(NS(=O)(=O)c4ccc(Br)cc4)cc3)ccc2/C1=C/c1ccc[nH]1`, the GI50 was 31.6 nM.
With `O=C1Nc2cc(-c3ccc(NS(=O)(=O)c4ccc5ccccc5c4)cc3)ccc2/C1=C/c1ccc[nH]1` the GI50 was 33.6 nM.
`COc1ccc(S(=O)(=O)Nc2ccc(-c3ccc4c(c3)NC(=O)/C4=C\c3ccc[nH]3)cc2)cc1OC` was tested, and the GI50 was 47.7 nM.
In the case of `O=C1Nc2cc(-c3ccc(NS(=O)(=O)c4ccc(C(F)(F)F)cc4)cc3)ccc2/C1=C/c1ccc[nH]1`, the GI50 was 81.8 nM.

What follows are compounds tested on MDA-MB-468 (assay: Antiproliferative activity against human MDA-MB-468 cells assessed as cell growth at 10 uM incubated for 72 hrs by SRB assay relative to control). Conditions: read-out: Activity.
Format: functional
`CC(=O)Nc1ccc(S(=O)(=O)Nc2ccc(-c3ccc4c(c3)NC(=O)/C4=C\c3ccc[nH]3)cc2)cc1` gave a growth at 10 µM of -7.1%.
Work on `O=C1Nc2cc(-c3ccc(NS(=O)(=O)c4ccc(Br)cc4)cc3)ccc2/C1=C/c1ccc[nH]1` yielded a growth at 10 µM of -66.9%.
`O=C1Nc2cc(-c3ccc(NS(=O)(=O)c4ccc5ccccc5c4)cc3)ccc2/C1=C/c1ccc[nH]1` was tested, and the growth at 10 µM was -80.8%.
`COc1ccc(S(=O)(=O)Nc2ccc(-c3ccc4c(c3)NC(=O)/C4=C\c3ccc[nH]3)cc2)cc1OC` showed a growth at 10 µM of -56.2%.
Compound `O=C1Nc2cc(-c3ccc(NS(=O)(=O)c4ccc(C(F)(F)F)cc4)cc3)ccc2/C1=C/c1ccc[nH]1` has a growth at 10 µM of -26.2%.

These compounds were tested on MDA-MB-468 (assay: Growth inhibition of human MDA-MB-468 cells incubated for 72 hrs by SRB assay). Conditions: not given.
Format: functional
`O=C1Nc2cc(-c3ccc(NS(=O)(=O)c4ccc(Br)cc4)cc3)ccc2/C1=C/c1ccc[nH]1` showed a GI50 of 25.4 nM.
Work on `O=C1Nc2cc(-c3ccc(NS(=O)(=O)c4ccc5ccccc5c4)cc3)ccc2/C1=C/c1ccc[nH]1` yielded a GI50 of 25.4 nM.
In the case of `COc1ccc(S(=O)(=O)Nc2ccc(-c3ccc4c(c3)NC(=O)/C4=C\c3ccc[nH]3)cc2)cc1OC`, the GI50 was 30.9 nM.
`O=C1Nc2cc(-c3ccc(NS(=O)(=O)c4ccc(C(F)(F)F)cc4)cc3)ccc2/C1=C/c1ccc[nH]1` gave a GI50 of 31.1 nM.

These compounds were tested on T47D (assay: Antiproliferative activity against human T47D cells assessed as cell growth at 10 uM incubated for 72 hrs by SRB assay relative to control). Conditions: read-out: Activity.
Format: functional
With `CC(=O)Nc1ccc(S(=O)(=O)Nc2ccc(-c3ccc4c(c3)NC(=O)/C4=C\c3ccc[nH]3)cc2)cc1` the growth at 10 µM was 20.7%.
`O=C1Nc2cc(-c3ccc(NS(=O)(=O)c4ccc(Br)cc4)cc3)ccc2/C1=C/c1ccc[nH]1` gave a growth at 10 µM of 9.33%.
`O=C1Nc2cc(-c3ccc(NS(=O)(=O)c4ccc5ccccc5c4)cc3)ccc2/C1=C/c1ccc[nH]1` was tested, and the growth at 10 µM was -16.7%.
With `COc1ccc(S(=O)(=O)Nc2ccc(-c3ccc4c(c3)NC(=O)/C4=C\c3ccc[nH]3)cc2)cc1OC` the growth at 10 µM was -21%.
`O=C1Nc2cc(-c3ccc(NS(=O)(=O)c4ccc(C(F)(F)F)cc4)cc3)ccc2/C1=C/c1ccc[nH]1` gave a growth at 10 µM of 18.1%.

The compounds below were run on T47D (assay: Growth inhibition of human T47D cells incubated for 72 hrs by SRB assay). Conditions: not given.
Format: functional
`O=C1Nc2cc(-c3ccc(NS(=O)(=O)c4ccc(Br)cc4)cc3)ccc2/C1=C/c1ccc[nH]1` showed a GI50 of 61.3 nM.
`O=C1Nc2cc(-c3ccc(NS(=O)(=O)c4ccc5ccccc5c4)cc3)ccc2/C1=C/c1ccc[nH]1` gave a GI50 of 47.1 nM.
Work on `COc1ccc(S(=O)(=O)Nc2ccc(-c3ccc4c(c3)NC(=O)/C4=C\c3ccc[nH]3)cc2)cc1OC` yielded a GI50 of 28.5 nM.
In the case of `O=C1Nc2cc(-c3ccc(NS(=O)(=O)c4ccc(C(F)(F)F)cc4)cc3)ccc2/C1=C/c1ccc[nH]1`, the GI50 was 230 nM.

Each compound was assayed against T1, Aurora kinase B (Homo sapiens, UniProt Q96GD4) (assay: Inhibition of Aurora B (unknown origin) at 100 nM by Z-LYTE assay relative to control). Conditions: not given.
T1 sequence (Q96GD4 whole entry): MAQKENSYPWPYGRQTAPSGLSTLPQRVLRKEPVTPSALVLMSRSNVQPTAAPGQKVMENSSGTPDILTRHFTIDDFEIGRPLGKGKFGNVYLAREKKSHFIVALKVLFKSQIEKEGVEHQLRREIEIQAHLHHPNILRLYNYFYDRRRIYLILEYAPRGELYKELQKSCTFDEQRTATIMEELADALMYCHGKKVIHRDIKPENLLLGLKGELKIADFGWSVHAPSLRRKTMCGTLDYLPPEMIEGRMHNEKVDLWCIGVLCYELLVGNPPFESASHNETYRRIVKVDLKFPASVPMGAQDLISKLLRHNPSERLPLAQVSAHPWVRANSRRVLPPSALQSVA
In the case of `CC(=O)Nc1ccc(S(=O)(=O)Nc2ccc(-c3ccc4c(c3)NC(=O)/C4=C\c3ccc[nH]3)cc2)cc1`, the inhibition was 46%.
`O=C1Nc2cc(-c3ccc(NS(=O)(=O)c4ccc(Br)cc4)cc3)ccc2/C1=C/c1ccc[nH]1` was tested, and the inhibition was 32%.
`O=C1Nc2cc(-c3ccc(NS(=O)(=O)c4ccc5ccccc5c4)cc3)ccc2/C1=C/c1ccc[nH]1` showed an inhibition of 20%.
With `COc1ccc(S(=O)(=O)Nc2ccc(-c3ccc4c(c3)NC(=O)/C4=C\c3ccc[nH]3)cc2)cc1OC` the inhibition was 33%.
In the case of `O=C1Nc2cc(-c3ccc(NS(=O)(=O)c4ccc(C(F)(F)F)cc4)cc3)ccc2/C1=C/c1ccc[nH]1`, the inhibition was 18%.

What follows are compounds tested against T1, Aurora kinase B (assay: Inhibition of Aurora B (unknown origin)). Conditions: not given.
With `O=C(Nc1ccc(-c2ccc3c(c2)NC(=O)/C3=C\c2ccc[nH]2)cc1)NC1CC1` the pIC50 was 7.98.

The compounds below were run against T1, Aurora kinase B (assay: Binding affinity to Aurora B (unknown origin) assessed as inhibition constant). Conditions: not given.
`O=C1Nc2cc(-c3ccc(O)cc3)ccc2/C1=C/c1ccc[nH]1` showed a pKi of 7.70.

The compounds below were run against T1, Aurora kinase B (assay: Inhibition of Aurora B (unknown origin) at 100 nM relative to control). Conditions: not given.
In the case of `O=C1Nc2cc(-c3ccc(NS(=O)(=O)c4ccccc4)cc3)ccc2/C1=C/c1ccc[nH]1`, the inhibition was 66%.
